In PubChem BioAssay (NCI):
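Dose response: 5 concentrations. Exposure: 48 h. Format: 96-well plates. Endpoint: linear interpolation; highest concentration if not reached. At the TGI there is no net growth.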

Columns and labels:
Assay in all cases: inhibition of tumour cell growth, NCI panel, 48 h
UACC-62 melanoma = test system: UACC-62 melanoma
M14 melanoma = test system: M14 melanoma
SW-620 colon = test system: SW-620 colon
HOP-18 NSCLC = test system: HOP-18 NSCLC
A549 NSCLC = test system: A549 NSCLC
HT29 colon = test system: HT29 colon
LOX IMVI melanoma = test system: LOX IMVI melanoma
SF-295 CNS = test system: SF-295 CNS
COLO 205 colon = test system: COLO 205 colon
SNB-78 CNS = test system: SNB-78 CNS
SK-OV-3 ovarian = test system: SK-OV-3 ovarian
SNB-19 CNS = test system: SNB-19 CNS
NCI-H460 lung = test system: NCI-H460 lung
LXFL 529 NSCLC = test system: LXFL 529 NSCLC
SNB-75 CNS = test system: SNB-75 CNS
U251 CNS = test system: U251 CNS
NCI-H522 lung = test system: NCI-H522 lung
MOLT-4 leukemia = test system: MOLT-4 leukemia
SK-MEL-5 melanoma = test system: SK-MEL-5 melanoma
M19-MEL melanoma = test system: M19-MEL melanoma
RXF 393 renal = test system: RXF 393 renal
NCI-H23 lung = test system: NCI-H23 lung
SN12C renal = test system: SN12C renal
K-562 leukemia = test system: K-562 leukemia
DLD-1 colon = test system: DLD-1 colon
CCRF-CEM leukemia = test system: CCRF-CEM leukemia
HCC-2998 colon = test system: HCC-2998 colon
OVCAR-3 ovarian = test system: OVCAR-3 ovarian
KM20L2 colon = test system: KM20L2 colon
XF 498 CNS = test system: XF 498 CNS
DMS 114 small cell lung = test system: DMS 114 small cell lung
OVCAR-4 ovarian = test system: OVCAR-4 ovarian
RPMI-8226 leukemia = test system: RPMI-8226 leukemia
TK-10 renal = test system: TK-10 renal
IGROV1 ovarian = test system: IGROV1 ovarian
SF-268 CNS = test system: SF-268 CNS
HOP-62 NSCLC = test system: HOP-62 NSCLC
HL-60(TB) leukemia = test system: HL-60(TB) leukemia
SF-539 CNS = test system: SF-539 CNS
OVCAR-8 ovarian = test system: OVCAR-8 ovarian
NCI-H226 lung = test system: NCI-H226 lung
DMS 273 small cell lung = test system: DMS 273 small cell lung
SK-MEL-28 melanoma = test system: SK-MEL-28 melanoma
KM12 colon = test system: KM12 colon
HCT-116 colon = test system: HCT-116 colon
786-0 renal = test system: 786-0 renal
UO-31 renal = test system: UO-31 renal
CAKI-1 renal = test system: CAKI-1 renal
OVCAR-5 ovarian = test system: OVCAR-5 ovarian
EKVX NSCLC = test system: EKVX NSCLC
MALME-3M melanoma = test system: MALME-3M melanoma
SK-MEL-2 melanoma = test system: SK-MEL-2 melanoma
SR leukemia = test system: SR leukemia
HCT-15 colon = test system: HCT-15 colon
UACC-257 melanoma = test system: UACC-257 melanoma
HOP-92 NSCLC = test system: HOP-92 NSCLC
ACHN renal = test system: ACHN renal

Measured: TGI

COP1(=O)CC2C(Cl)(Cl)C2(C)C1 (stereo not drawn)
> 100 µM: UACC-62 melanoma | M14 melanoma | SW-620 colon | HOP-18 NSCLC | A549 NSCLC | HT29 colon | LOX IMVI melanoma | SF-295 CNS | COLO 205 colon | SNB-78 CNS | SK-OV-3 ovarian | SNB-19 CNS | NCI-H460 lung | LXFL 529 NSCLC | SNB-75 CNS | U251 CNS | NCI-H522 lung | MOLT-4 leukemia | SK-MEL-5 melanoma | M19-MEL melanoma | RXF 393 renal | NCI-H23 lung | SN12C renal | K-562 leukemia | DLD-1 colon | CCRF-CEM leukemia | HCC-2998 colon | OVCAR-3 ovarian | KM20L2 colon | XF 498 CNS | DMS 114 small cell lung | OVCAR-4 ovarian | RPMI-8226 leukemia | TK-10 renal | IGROV1 ovarian | SF-268 CNS | HOP-62 NSCLC | HL-60(TB) leukemia | SF-539 CNS | OVCAR-8 ovarian | NCI-H226 lung | DMS 273 small cell lung | SK-MEL-28 melanoma | KM12 colon | HCT-116 colon | 786-0 renal

CCOC(=O)C(C(=O)Cc1ccccc1)c1ccccc1 (stereo not drawn)
> 100 µM: UACC-62 melanoma | M14 melanoma | SW-620 colon | UO-31 renal | A549 NSCLC | HT29 colon | LOX IMVI melanoma | SF-295 CNS | COLO 205 colon | SNB-78 CNS | SK-OV-3 ovarian | SNB-19 CNS | NCI-H460 lung | LXFL 529 NSCLC | CAKI-1 renal | OVCAR-5 ovarian | SNB-75 CNS | U251 CNS | NCI-H522 lung | MOLT-4 leukemia | SK-MEL-5 melanoma | M19-MEL melanoma | NCI-H23 lung | SN12C renal | K-562 leukemia | DLD-1 colon | CCRF-CEM leukemia | EKVX NSCLC | OVCAR-3 ovarian | MALME-3M melanoma | KM20L2 colon | XF 498 CNS | SK-MEL-2 melanoma | SR leukemia | OVCAR-4 ovarian | RPMI-8226 leukemia | HCT-15 colon | TK-10 renal | IGROV1 ovarian | SF-268 CNS | HOP-62 NSCLC | HL-60(TB) leukemia | SF-539 CNS | OVCAR-8 ovarian | UACC-257 melanoma | NCI-H226 lung | HOP-92 NSCLC | ACHN renal | SK-MEL-28 melanoma | KM12 colon | HCT-116 colon | 786-0 renal
